# Laboratory results from patent US9040545B2, “Heterocyclyl pyrazolopyrimidine analogues as selective JAK inhibitors” (Cellzome Limited, priority 2010, dated 2015).
# pIC50: −log10 of the molar value.
# Columns and labels:
# Aurora A = molecular target: T1, Aurora A (Homo sapiens, UniProt O14965); experiment: Kinobeads assay, Aurora A; type: binding; details: for pIC50: lysate of pervanadate-treated Jurkat cells, read-out: Inhibition values (IC50) Aur A
# T1 construct: cell lysates from Jurkat cells (ATCC TIB-152) used; endogenous in cells; host or cells: Jurkat cells (ATCC TIB-152), treated with pervanadate
# T1 sequence (O14965 1-403): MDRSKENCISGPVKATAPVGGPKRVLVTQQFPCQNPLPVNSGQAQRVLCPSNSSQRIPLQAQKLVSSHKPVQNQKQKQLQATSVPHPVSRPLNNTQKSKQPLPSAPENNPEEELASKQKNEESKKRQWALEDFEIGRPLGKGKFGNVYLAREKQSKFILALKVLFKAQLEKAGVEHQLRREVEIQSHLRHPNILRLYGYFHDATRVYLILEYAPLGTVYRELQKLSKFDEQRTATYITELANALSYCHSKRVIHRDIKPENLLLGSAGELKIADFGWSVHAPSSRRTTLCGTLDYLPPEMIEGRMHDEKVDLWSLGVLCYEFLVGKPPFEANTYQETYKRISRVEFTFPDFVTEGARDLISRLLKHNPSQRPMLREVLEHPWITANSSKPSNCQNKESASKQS
# JAK2 = molecular target: T2, JAK2 (Homo sapiens, UniProt O60674); experiment: Kinobeads assay, JAK2; type: binding; details: mixed Molt4/Ramos lysate, read-out: Inhibition values (IC50) JAK2
# T2 construct: endogenous in cells; host or cells: mixed Molt4/Ramos lysate (1:2)
# T2 sequence (O60674 whole entry): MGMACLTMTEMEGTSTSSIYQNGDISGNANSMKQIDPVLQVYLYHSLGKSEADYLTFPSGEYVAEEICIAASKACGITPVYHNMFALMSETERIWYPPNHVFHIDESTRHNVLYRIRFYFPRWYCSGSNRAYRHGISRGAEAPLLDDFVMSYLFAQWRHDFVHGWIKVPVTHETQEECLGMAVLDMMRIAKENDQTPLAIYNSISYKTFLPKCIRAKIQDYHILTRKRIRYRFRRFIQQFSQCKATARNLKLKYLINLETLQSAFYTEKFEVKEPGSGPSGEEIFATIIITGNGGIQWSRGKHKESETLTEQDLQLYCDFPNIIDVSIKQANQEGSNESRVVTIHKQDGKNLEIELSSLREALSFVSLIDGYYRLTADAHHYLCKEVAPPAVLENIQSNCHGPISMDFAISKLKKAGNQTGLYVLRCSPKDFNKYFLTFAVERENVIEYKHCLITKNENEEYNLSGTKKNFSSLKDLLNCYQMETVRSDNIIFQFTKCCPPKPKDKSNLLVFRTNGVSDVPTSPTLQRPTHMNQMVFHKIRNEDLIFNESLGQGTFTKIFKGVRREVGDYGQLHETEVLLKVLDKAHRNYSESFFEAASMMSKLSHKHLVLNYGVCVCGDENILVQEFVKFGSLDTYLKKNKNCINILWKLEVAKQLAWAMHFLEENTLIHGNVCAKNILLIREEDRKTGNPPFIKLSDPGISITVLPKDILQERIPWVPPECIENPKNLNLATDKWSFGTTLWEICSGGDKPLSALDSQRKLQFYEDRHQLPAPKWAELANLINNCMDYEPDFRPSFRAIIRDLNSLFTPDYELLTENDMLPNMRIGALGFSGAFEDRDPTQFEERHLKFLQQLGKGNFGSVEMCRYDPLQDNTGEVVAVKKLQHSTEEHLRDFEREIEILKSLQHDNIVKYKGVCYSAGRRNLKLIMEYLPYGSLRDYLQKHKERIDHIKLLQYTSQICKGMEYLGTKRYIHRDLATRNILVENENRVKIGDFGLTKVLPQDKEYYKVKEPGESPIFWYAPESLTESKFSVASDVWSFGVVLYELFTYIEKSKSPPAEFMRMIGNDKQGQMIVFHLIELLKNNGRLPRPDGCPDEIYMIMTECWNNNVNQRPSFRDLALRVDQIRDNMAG
# How it was run: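 Competition binding in mixed Molt4/Ramos cell lysate (1:2, 10 mg/mL protein) with Kinobeads carrying immobilized aminopyrido-pyrimidine ligand, 3 h in cold room; 9-step 1:3 compound dilution series from 5 mM DMSO stock. Bead-bound JAK2/JAK3 eluted and quantified by antibody dot blot with infrared detection; IC50 from dose-response curves.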
SMILES,JAK3/AurA Fold Selectivity (Aurora A),pIC50 (Aurora A),pIC50 (JAK2)
"Cn1cc(Nc2ncc3cnn(Cc4cc(F)cc(N5CCNCC5=O)c4)c3n2)cn1 [Example 64, 1-(3-Fluoro-5-((6-((1-methyl-1H-pyrazol-4-yl)amino)-1H-pyrazolo[3,4-d]pyrimidin-1-yl)methyl)phenyl)piperazin-2-one]",10-50 Fold,6.00 to 7.00,5.00 to 6.00
"COC1CN(c2cccc(Cn3ncc4cnc(Nc5cnn(C)c5)nc43)c2)C1 [Example 65, 1-(3-(3-Methoxyazetidin-1-yl)benzyl)-N-(1-methyl-1H-pyrazol-4-yl)-1H-pyrazolo[3,4-d]pyrimidin-6-amine]",>50 Fold,5.00 to 6.00,≤ 5.00
"Cn1cc(Nc2ncc3cnn(Cc4c(F)c(F)cc(N5CCNCC5)c4F)c3n2)cn1 [Example 66, N-(1-Methyl-1H-pyrazol-4-yl)-1-(2,3,6-trifluoro-5-(piperazin-1-yl)benzyl)-1H-pyrazolo[3,4-d]pyrimidin-6-amine]",10-50 Fold,6.00 to 7.00,5.00 to 6.00
"Cn1cc(Nc2ncc3cnn(Cc4cccc(N5CCNCC5)c4F)c3n2)cn1 [Example 67, 1-(2-Fluoro-3-(piperazin-1-yl)benzyl)-N-(1-methyl-1H-pyrazol-4-yl)-1H-pyrazolo[3,4-d]pyrimidin-6-amine]",>50 Fold,6.00 to 7.00,5.00 to 6.00
"CNC(=O)Cn1cc(Nc2ncc3cnn(Cc4cc(F)cc(N5CCOCC5=O)c4)c3n2)cn1 [Example 68, 2-(4-((1-(3-Fluoro-5-(3-oxomorpholino)benzyl)-1H-pyrazolo[3,4-d]pyrimidin-6-yl)amino)-1H-pyrazol-1-yl)-N-methylacetamide]",10-50 Fold,6.00 to 7.00,5.00 to 6.00
"Cn1cc(Nc2ncc3cnn(Cc4c(F)ccc(N5CCOCC5=O)c4F)c3n2)cn1 [Example 69, 4-(2,4-Difluoro-3-((6-((1-methyl-1H-pyrazol-4-yl)amino)-1H-pyrazolo[3,4-d]pyrimidin-1-yl)methyl)phenyl)morpholin-3-one]",3-10 Fold,> 7.00,5.00 to 6.00
"CN(C)CCCn1cc(Nc2ncc3cnn(Cc4c(F)c(F)cc(N5CCOCC5=O)c4F)c3n2)cn1 [Example 70, 4-(3-((6-((1-(3-(Dimethylamino)propyl)-1H-pyrazol-4-yl)amino)-1H-pyrazolo[3,4-d]pyrimidin-1-yl)methyl)-2,4,5-trifluorophenyl)morpholin-3-one]",>50 Fold,5.00 to 6.00,5.00 to 6.00
"Cn1cc(Nc2ncc3cnn(Cc4cc(N5CCNCC5=O)cc(F)c4F)c3n2)cn1 [Example 71, 1-(3,4-Difluoro-5-((6-((1-methyl-1H-pyrazol-4-yl)amino)-1H-pyrazolo[3,4-d]pyrimidin-1-yl)methyl)phenyl)piperazin-2-one]",10-50 Fold,6.00 to 7.00,≤ 5.00
"CN(C)CCCn1cc(Nc2ncc3cnn(Cc4c(F)ccc(N5CCOCC5=O)c4F)c3n2)cn1 [Example 75, 4-(3-((6-((1-(3-(Dimethylamino)propyl)-1H-pyrazol-4-yl)amino)-1H-pyrazolo[3,4-d]pyrimidin-1-yl)methyl)-2,4-difluorophenyl)morpholin-3-one]",10-50 Fold,6.00 to 7.00,5.00 to 6.00
"Cn1cc(Nc2ncc3cnn(Cc4c(F)ccc(N5CCNCC5=O)c4F)c3n2)cn1 [Example 76, 1-(2,4-Difluoro-3-((6-((1-methyl-1H-pyrazol-4-yl)amino)-1H-pyrazolo[3,4-d]pyrimidin-1-yl)methyl)phenyl)piperazin-2-one]",3-10 Fold,> 7.00,5.00 to 6.00
"COC1CCN(c2cccc(Cn3ncc4cnc(Nc5cnn(C)c5)nc43)c2)CC1 [Example 77, 1-(3-(4-Methoxypiperidin-1-yl)benzyl)-N-(1-methyl-1H-pyrazol-4-yl)-1H-pyrazolo[3,4-d]pyrimidin-6-amine]",3-10 Fold,6.00 to 7.00,≤ 5.00
"OCCn1cc(Nc2ncc3cnn(Cc4cc(N5CCNCC5)cc(F)c4F)c3n2)cn1 [Example 78, 2-(4-((1-(2,3-Difluoro-5-(piperazin-1-yl)benzyl)-1H-pyrazolo[3,4-d]pyrimidin-6-yl)amino)-1H-pyrazol-1-yl)ethanol]",10-50 Fold,6.00 to 7.00,5.00 to 6.00
"Cn1cc(Nc2ncc3cnn(Cc4cc(F)cc(C(=O)N5CCOCC5)c4)c3n2)cn1 [Example 79, (3-Fluoro-5-((6-((1-methyl-1H-pyrazol-4-yl)amino)-1H-pyrazolo[3,4-d]pyrimidin-1-yl)methyl)phenyl)(morpholino)methanone]",10-50 Fold,6.00 to 7.00,6.00 to 7.00
"Cn1cc(Nc2ncc3cnn(Cc4cc(F)cc(C(=O)N5CCNCC5)c4)c3n2)cn1 [Example 80, (3-Fluoro-5-((6-((1-methyl-1H-pyrazol-4-yl)amino)-1H-pyrazolo[3,4-d]pyrimidin-1-yl)methyl)phenyl)(piperazin-1-yl)methanone]",3-10 Fold,6.00 to 7.00,5.00 to 6.00
"Fc1cc(N2CCOCC2)c(F)c(Cn2ncc3cnc(Nc4cn[nH]c4)nc32)c1F [Example 81, N-(1H-Pyrazol-4-yl)-1-(2,3,6-trifluoro-5-morpholinobenzyl)-1H-pyrazolo[3,4-d]pyrimidin-6-amine]",>50 Fold,6.00 to 7.00,5.00 to 6.00
"OCCn1cc(Nc2ncc3cnn(Cc4c(F)ccc(N5CCOCC5)c4F)c3n2)cn1 [Example 82, 2-(4-((1-(2,6-Difluoro-3-morpholinobenzyl)-1H-pyrazolo[3,4-d]pyrimidin-6-yl)amino)-1H-pyrazol-1-yl)ethanol]",3-10 Fold,6.00 to 7.00,≤ 5.00

# Continued, values first:
JAK3/AurA Fold Selectivity (Aurora A),pIC50 (Aurora A),pIC50 (JAK2),SMILES
10-50 Fold,6.00 to 7.00,5.00 to 6.00,"O=C1COCCN1c1cc(F)c(F)c(Cn2ncc3cnc(Nc4cnn(CCO)c4)nc32)c1F [Example 62, 4-(2,4,5-Trifluoro-3-((6-((1-(2-hydroxyethyl)-1H-pyrazol-4-yl)amino)-1H-pyrazolo[3,4-d]pyrimidin-1-yl)methyl)phenyl)morpholin-3-one]"
10-50 Fold,6.00 to 7.00,5.00 to 6.00,"O=C1CNCCN1c1cc(F)cc(Cn2ncc3cnc(Nc4cnn(CCO)c4)nc32)c1 [Example 63, 1-(3-Fluoro-5-((6-((1-(2-hydroxyethyl)-1H-pyrazol-4-yl)amino)-1H-pyrazolo[3,4-d]pyrimidin-1-yl)methyl)phenyl)piperazin-2-one]"
10-50 Fold,6.00 to 7.00,≤ 5.00,"O=C1CNCCN1c1cc(F)c(F)c(Cn2ncc3cnc(Nc4cnn(CCO)c4)nc32)c1 [Example 72, 1-(3,4-Difluoro-5-((6-((1-(2-hydroxyethyl)-1H-pyrazol-4-yl)amino)-1H-pyrazolo[3,4-d]pyrimidin-1-yl)methyl)phenyl)piperazin-2-one]"
10-50 Fold,6.00 to 7.00,6.00 to 7.00,"Cn1cc(Nc2ncc3cnn(Cc4cc(F)cc(N5CCOCC5=O)c4F)c3n2)cn1 [Example 73, 4-(2,5-Difluoro-3-((6-((1-methyl-1H-pyrazol-4-yl)amino)-1H-pyrazolo[3,4-d]pyrimidin-1-yl)methyl)phenyl)morpholin-3-one]"
10-50 Fold,> 7.00,6.00 to 7.00,"O=C1COCCN1c1cc(F)cc(Cn2ncc3cnc(Nc4cnn(CCO)c4)nc32)c1F [Example 74, 4-(2,5-Difluoro-3-((6-((1-(2-hydroxyethyl)-1H-pyrazol-4-yl)amino)-1H-pyrazolo[3,4-d]pyrimidin-1-yl)methyl)phenyl)morpholin-3-one]"
10-50 Fold,6.00 to 7.00,5.00 to 6.00,"OCCn1cc(Nc2ncc3cnn(Cc4cccc(N5CCNCC5)c4F)c3n2)cn1 [Example 83, 2-(4-((1-(2-Fluoro-3-(piperazin-1-yl)benzyl)-1H-pyrazolo[3,4-d]pyrimidin-6-yl)amino)-1H-pyrazol-1-yl)ethanol]"
>50 Fold,6.00 to 7.00,6.00 to 7.00,"O=C1COCCN1c1cc(F)cc(Cn2ncc3cnc(Nc4cn[nH]c4)nc32)c1 [Example 84, 4-(3-((6-((1H-Pyrazol-4-yl)amino)-1H-pyrazolo[3,4-d]pyrimidin-1-yl)methyl)-5-fluorophenyl)morpholin-3-one]"
>50 Fold,6.00 to 7.00,5.00 to 6.00,"O=C(c1cccc(Cn2ncc3cnc(Nc4cnn(CCO)c4)nc32)c1F)N1CCOCC1 [Example 85, (2-Fluoro-3-((6-((1-(2-hydroxyethyl)-1H-pyrazol-4-yl)amino)-1H-pyrazolo[3,4-d]pyrimidin-1-yl)methyl)phenyl)(morpholino)methanone]"
>50 Fold,5.00 to 6.00,5.00 to 6.00,"Cn1cc(Nc2ncc3cnn(Cc4cc(N5CCNCC5)cc(F)c4F)c3n2)cn1 [Example 86, 1-(2,3-Difluoro-5-(piperazin-1-yl)benzyl)-N-(1-methyl-1H-pyrazol-4-yl)-1H-pyrazolo[3,4-d]pyrimidin-6-amine]"
